According to ChEMBL document CHEMBL1157525, “The design and synthesis of potent and cell-active allosteric dual Akt 1 and 2 inhibitors devoid of hERG activity” (Bioorg Med Chem Lett, 2008):

Tests used:
[1] = biological target: T1, RAC-beta serine/threonine-protein kinase (Homo sapiens, UniProt P31751); assay: Inhibition of Akt2 by cellular assay
[2] = biological target: T2, RAC-alpha serine/threonine-protein kinase (Homo sapiens, UniProt P31749); assay: Inhibition of Akt1 by cellular assay
[3] = biological target: Voltage-gated inwardly rectifying potassium channel KCNH2 (Homo sapiens, UniProt Q12809); assay: Inhibition of human ERG in embryonic kidney cells by radioligand-binding competition assay
[4] = biological target: T1, RAC-beta serine/threonine-protein kinase; assay: Inhibition of Akt2
[5] = biological target: T2, RAC-alpha serine/threonine-protein kinase; assay: Inhibition of Akt1

T2 sequence (P31749 whole entry): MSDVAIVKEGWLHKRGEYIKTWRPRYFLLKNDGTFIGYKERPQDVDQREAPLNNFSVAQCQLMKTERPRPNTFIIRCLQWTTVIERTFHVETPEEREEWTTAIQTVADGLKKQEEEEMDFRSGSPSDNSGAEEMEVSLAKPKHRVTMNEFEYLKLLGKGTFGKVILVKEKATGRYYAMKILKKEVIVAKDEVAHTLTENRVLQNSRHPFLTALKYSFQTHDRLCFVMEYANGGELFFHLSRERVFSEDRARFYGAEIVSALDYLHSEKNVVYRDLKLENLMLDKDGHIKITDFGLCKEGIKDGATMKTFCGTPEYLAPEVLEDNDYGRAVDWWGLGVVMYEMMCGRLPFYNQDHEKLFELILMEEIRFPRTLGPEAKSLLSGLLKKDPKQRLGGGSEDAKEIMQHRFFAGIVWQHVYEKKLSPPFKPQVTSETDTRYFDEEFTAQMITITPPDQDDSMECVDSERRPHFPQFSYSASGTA
Voltage-gated inwardly rectifying potassium channel KCNH2, sequence (Q12809 whole entry): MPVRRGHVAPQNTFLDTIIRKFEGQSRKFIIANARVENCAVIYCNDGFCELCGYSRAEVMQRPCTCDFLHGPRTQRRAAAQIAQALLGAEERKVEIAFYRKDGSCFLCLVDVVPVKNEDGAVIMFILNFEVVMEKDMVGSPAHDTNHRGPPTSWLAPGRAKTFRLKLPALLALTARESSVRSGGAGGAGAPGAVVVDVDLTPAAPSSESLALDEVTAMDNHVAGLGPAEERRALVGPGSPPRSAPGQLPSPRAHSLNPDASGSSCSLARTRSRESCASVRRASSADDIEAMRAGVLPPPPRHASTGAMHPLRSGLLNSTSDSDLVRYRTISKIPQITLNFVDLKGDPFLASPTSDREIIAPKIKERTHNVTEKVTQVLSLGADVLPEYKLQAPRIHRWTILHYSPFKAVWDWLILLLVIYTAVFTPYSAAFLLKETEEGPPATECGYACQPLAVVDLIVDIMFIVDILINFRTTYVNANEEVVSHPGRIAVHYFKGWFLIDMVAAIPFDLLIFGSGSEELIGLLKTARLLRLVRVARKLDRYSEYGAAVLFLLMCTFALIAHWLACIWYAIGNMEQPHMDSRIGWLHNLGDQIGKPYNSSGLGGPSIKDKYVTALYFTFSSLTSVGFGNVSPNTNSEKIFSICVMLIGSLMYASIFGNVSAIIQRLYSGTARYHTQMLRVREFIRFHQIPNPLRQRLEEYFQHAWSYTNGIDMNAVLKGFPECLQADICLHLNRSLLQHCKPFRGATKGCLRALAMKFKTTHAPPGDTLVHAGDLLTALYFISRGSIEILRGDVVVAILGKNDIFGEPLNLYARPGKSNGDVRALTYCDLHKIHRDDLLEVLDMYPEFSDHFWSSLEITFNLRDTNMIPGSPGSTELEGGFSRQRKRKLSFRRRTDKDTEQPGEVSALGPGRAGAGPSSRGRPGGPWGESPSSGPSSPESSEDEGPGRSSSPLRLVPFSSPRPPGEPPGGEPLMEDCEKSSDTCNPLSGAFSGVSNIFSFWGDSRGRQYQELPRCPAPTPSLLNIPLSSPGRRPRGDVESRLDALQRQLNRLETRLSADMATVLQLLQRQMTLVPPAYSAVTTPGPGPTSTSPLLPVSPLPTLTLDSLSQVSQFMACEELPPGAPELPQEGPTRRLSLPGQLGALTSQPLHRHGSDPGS
T1 sequence (P31751 whole entry): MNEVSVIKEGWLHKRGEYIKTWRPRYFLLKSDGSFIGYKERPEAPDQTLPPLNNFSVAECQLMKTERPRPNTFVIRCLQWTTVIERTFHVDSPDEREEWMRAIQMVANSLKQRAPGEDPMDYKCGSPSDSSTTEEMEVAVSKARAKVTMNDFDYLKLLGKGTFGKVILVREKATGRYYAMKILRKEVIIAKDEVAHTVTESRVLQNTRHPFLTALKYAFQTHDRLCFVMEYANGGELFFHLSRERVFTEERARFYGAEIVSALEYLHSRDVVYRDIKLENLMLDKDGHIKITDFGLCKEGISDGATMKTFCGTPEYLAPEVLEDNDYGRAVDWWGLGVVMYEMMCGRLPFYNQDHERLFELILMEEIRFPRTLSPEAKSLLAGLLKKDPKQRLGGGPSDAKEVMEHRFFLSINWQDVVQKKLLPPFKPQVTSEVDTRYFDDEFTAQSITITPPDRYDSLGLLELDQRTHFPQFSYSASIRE

| SMILES | IC50 [1] [nM] | IC50 [2] [nM] | IC50 [3] [nM] | IC50 [4] [nM] | IC50 [5] [nM] |
| --- | --- | --- | --- | --- | --- |
| CN1CCN(c2ncc3cc(-c4ccccc4)c(-c4ccc(CN5CCC(c6nnc(-c7ccc(N)nc7)[nH]6)CC5)cc4)nc3n2)CC1 | 84 | 20 | 6100 | – | – |
| CN1CCN(c2ccc3nc(-c4ccccc4)c(-c4ccc(CN5CCC(c6nnc(-c7ccc(N)nc7)[nH]6)CC5)cc4)nc3n2)CC1 | 225 | 70 | – | – | – |
| CN(C)CCN1CCN(c2ccc3nc(-c4ccccc4)c(-c4ccc(CN5CCC(c6nnc(-c7ccccn7)[nH]6)CC5)cc4)nc3n2)CC1 | 43 | 10 | – | – | – |
| CN(C)CCN1CCN(c2ncc3cc(-c4ccccc4)c(-c4ccc(CN5CCC(c6nnc(-c7ccccn7)[nH]6)CC5)cc4)nc3n2)CC1 | 39 | 10 | 2100 | 4 | 4 |
| OCCN1CCN(c2ccc3nc(-c4ccccc4)c(-c4ccc(CN5CCC(c6nnc(-c7ccccn7)[nH]6)CC5)cc4)nc3n2)CC1 | 48 | 13 | – | – | – |
| O=c1[nH]ccc2nc(-c3ccc(CN4CCC(c5nnc(-c6ncccn6)[nH]5)CC4)cc3)c(-c3ccccc3)cc12 | 69 | 23 | > 10000 | 44 | 7 |
| O=c1ccc(-c2nnc(C3CCN(Cc4ccc(-c5nc6cc[nH]c(=O)c6cc5-c5ccccc5)cc4)CC3)[nH]2)c[nH]1 | 284 | 62 | > 10000 | 8 | 1 |
| O=C1NCCc2nc(-c3ccc(CN4CCC(c5nnc(-c6ccccn6)[nH]5)CC4)cc3)c(-c3ccccc3)cc21 | 224 | 16 | 2500 | 26 | 3.5 |
| CN1CCN(c2ccc3nc(-c4ccccc4)c(-c4ccc(CN5CCC(c6nnc(-c7ccccn7)[nH]6)CC5)cc4)nc3n2)CC1 | 92 | 18 | – | – | – |
| CN(C)CCN1CCN(c2ncc3cc(-c4ccccc4)c(-c4ccc(CN5CCC(c6nnc(-c7ccc(=O)[nH]c7)[nH]6)CC5)cc4)nc3n2)CC1 | 98 | 69 | 800 | – | – |
| [O-][n+]1ccc(-c2nnc(C3CCN(Cc4ccc(-c5nc6nc(N7CCN(CCO)CC7)ncc6cc5-c5ccccc5)cc4)CC3)[nH]2)cc1 | 146 | 67 | > 10000 | – | – |
| O=c1ccc(-c2nnc(C3CCN(Cc4ccc(-c5nc6nc(N7CCN(CCO)CC7)ncc6cc5-c5ccccc5)cc4)CC3)[nH]2)c[nH]1 | 284 | 127 | 6800 | – | – |
| CN1CCN(c2ccc3nc(-c4ccccc4)c(-c4ccc(CN5CCC(c6nnc(-c7ncccn7)[nH]6)CC5)cc4)nc3n2)CC1 | 192 | 52 | – | – | – |
| OCCN1CCN(c2ccc3nc(-c4ccccc4)c(-c4ccc(CN5CCC(c6nc(-c7ncccn7)n[nH]6)CC5)cc4)nc3n2)CC1 | 190 | 72 | – | – | – |
| COc1ccc(-c2nnc(C3CCN(Cc4ccc(-c5nc6cc[nH]c(=O)c6cc5-c5ccccc5)cc4)CC3)[nH]2)cn1 | 159 | 40 | 1220 | 16 | 3 |
| OCCN1CCN(c2ncc3cc(-c4ccccc4)c(-c4ccc(CN5CCC(c6nc(-c7ncccn7)n[nH]6)CC5)cc4)nc3n2)CC1 | 80 | 37 | > 10000 | – | – |
| CN(C)CCN1CCN(c2ccc3nc(-c4ccccc4)c(-c4ccc(CN5CCC(c6nc(-c7ncccn7)n[nH]6)CC5)cc4)nc3n2)CC1 | 116 | 104 | > 10000 | – | – |
| CN(C)CCN1CCN(c2ncc3cc(-c4ccccc4)c(-c4ccc(CN5CCC(c6nnc(-c7ncccn7)[nH]6)CC5)cc4)nc3n2)CC1 | 130 | 35 | 4800 | – | – |
| CN(C)CCN1CCN(c2ncc3cc(-c4ccccc4)c(-c4ccc(CN5CCC(c6nnc(-c7ccc(N)nc7)[nH]6)CC5)cc4)nc3n2)CC1 | 140 | 37 | – | – | – |
| Nc1ccc(-c2nnc(C3CCN(Cc4ccc(-c5nc6nc(N7CCN(CCO)CC7)ccc6nc5-c5ccccc5)cc4)CC3)[nH]2)cn1 | 230 | 115 | – | – | – |
| CN1CCN(c2ncc3cc(-c4ccccc4)c(-c4ccc(CN5CCC(c6nnc(-c7ccc(=O)[nH]c7)[nH]6)CC5)cc4)nc3n2)CC1 | 188 | 71 | – | – | – |
| CN(C)CCN1CCN(c2ncc3cc(-c4ccccc4)c(-c4ccc(CN5CCC(c6nnc(-c7cc[n+]([O-])cc7)[nH]6)CC5)cc4)nc3n2)CC1 | 68 | 33 | 7900 | – | – |
| Nc1ccc(-c2nnc(C3CCN(Cc4ccc(-c5nc6nc(N7CCN(CCO)CC7)ncc6cc5-c5ccccc5)cc4)CC3)[nH]2)cn1 | 180 | 38 | – | – | – |
| Nc1ccc(-c2nnc(C3CCN(Cc4ccc(-c5nc6cc[nH]c(=O)c6cc5-c5ccccc5)cc4)CC3)[nH]2)cn1 | 165 | 26 | 10000 | 33 | 4 |
| CN1CCN(c2ncc3cc(-c4ccccc4)c(-c4ccc(CN5CCC(c6nnc(-c7cc[n+]([O-])cc7)[nH]6)CC5)cc4)nc3n2)CC1 | 185 | 88 | 9800 | – | – |
| CN1CCN(c2ccc3nc(-c4ccc(CN5CCC(c6nnc(-c7ccccn7)[nH]6)CC5)cc4)c(-c4ccccc4)nc3n2)CC1 | 827 | 1410 | – | – | – |
| O=c1[nH]ccc2nc(-c3ccc(CN4CCC(c5nnc(-c6cnccn6)[nH]5)CC4)cc3)c(-c3ccccc3)cc12 | 405 | 44 | – | 21 | 4 |
| CN1CCN(c2ncc3cc(-c4ccccc4)c(-c4ccc(CN5CCC(c6nnc(-c7ncccn7)[nH]6)CC5)cc4)nc3n2)CC1 | 40 | 25 | – | – | – |
